Test results reported in patent US20210353579A1, “HIGH PENETRATION COMPOSITIONS AND USES THEREOF” (Techfields Pharma Co., Ltd., priority 2006, published 2021).

Columns and labels:
[1] = test system: rats (SLAC/GK, type 2 diabetes); experiment: Blood glucose in type 2 diabetes rats, transdermal; assay type: in vivo, rat; conditions: diabetic rats (SLAC/GK); for Blood glucose, Average: average second to fifth week, no fasting, equal to 20 mg/kg of NSAIAs once per day for 5 weeks; for Blood glucose, Baseline: equal to 20 mg/kg of NSAIAs once per day
Text: (§1) HPPs lower blood glucose level in rat models (SLAC/GK, type 2 diabetes, n=7). 50% acetone solution of diethylaminoethyl acetylsalicylate.acetylsalicylic acid salt (P-1, in acetone); 4-acetamidophenyl salicylyldimethylaminobutyrate.HCl (P-6), diethylaminoethyl 5-(2,4-difluorophenyl) acetylsalicylate.5-(2,4-difluorophenyl).acetylsalicylic acid salt (P-8), diethylaminoethyl salicylsalicylate.AcOH (P-9), diethylaminoethyl salicylate.AcOH (P-10), diethylaminoethyl 5-acetamido-acetylsalicylate (P-58), diethylaminoethyl acetylsalicylsalicylate.acetylsalicylsalicylic acid salt (P-59), diethylaminoethyl acetylsalicylsalicylate.acetylsalicylsalicylsalicylic acid salt (P-60) (equal to of 20 mg/kg of NSAIAs) are administered transdermally to the backs (about 1.5 cm^2) of rats (fur was shaved) once per day (at 8 am) for 5 weeks. The blood glucose levels are measured once every 3 days at 3 pm (no fasting) from the second week to the fifth week (Table 24). The blood lipid levels are measured at the end of the fifth week (Table 25).

[2] = test system: mice (SLAC:NOD-IDDM, type 1 diabetes); experiment: Blood glucose in type 1 diabetes mice, transdermal; assay type: in vivo, mouse; conditions: for Blood glucose, Average: average fourth to seventh week, no fasting, equal to 30 mg/kg of NSAIAs once per day for 7 weeks; for Blood glucose, Baseline: equal to 30 mg/kg of NSAIAs
Text: The pro-drugs in this invention lower blood glucose levels in mouse models (SLAC:NOD-IDDM, type 1 diabetes, n=7). 50% acetone solution of diethylaminoethyl acetylsalicylate.acetylsalicylic acid salt (P-1, in acetone); 4-acetamidophenyl salicylyldimethylaminobutyrate.HCl (P-6), diethylaminoethyl 5-(2,4-difluorophenyl) acetylsalicylate.5-(2,4-difluorophenyl) acetylsalicylic acid salt (P-8), diethylaminoethyl salicylsalicylate.AcOH (P-9), diethylaminoethyl salicylate.AcOH (P-10), diethylaminoethyl 5-acetamido-acetylsalicylate (P-58), diethylaminoethyl acetylsalicylsalicylate. acetylsalicylsalicylic acid salt (P-59), diethylaminoethyl acetylsalicylsalicylate. acetylsalicylsalicylsalicylic acid salt (P-60) (equal to of 30 mg/kg of NSAIAs) were administered transdermally to the backs (about 1.5 cm^2) of mice (fur was shaved) once per day (at 8 am) for 7 weeks. The blood glucose levels were measured once every 3 days at 3 pm (no fasting) from the fourth week to the seventh week.

[3] = test system: rats (SLAC/GK, type 2 diabetes); experiment: Blood lipid in type 2 diabetes rats, transdermal; assay type: in vivo, rat; conditions: for Cholesterol (HDL), Baseline / Cholesterol (total), Baseline / Triglycerides, Baseline: equal to 20 mg/kg of NSAIAs; for Cholesterol (HDL), Average / Cholesterol (total), Average / Triglycerides, Average: end of the fifth week, equal to 20 mg/kg of NSAIAs once per day
Text: as §1

[4] = test system: normal rats; experiment: Blood glucose in normal rats, transdermal; assay type: in vivo, rat; conditions: for Blood glucose, Average: normal rats (second Average line of Table 24), average second to fifth week, equal to 20 mg/kg of NSAIAs once per day; for Blood glucose, Baseline: normal rats (second Baseline line of Table 24), equal to 20 mg/kg of NSAIAs
Text: as §1, with “25). […]” for “25).”

[5] = test system: rats (SLAC/GK, type 2 diabetes); experiment: Blood lipid in type 2 diabetes rats, oral with food; assay type: in vivo, rat; conditions: for Cholesterol (HDL), Baseline / Cholesterol (total), Baseline / Triglycerides, Baseline: equal to 20 mg/kg of NSAIAs; for Cholesterol (HDL), Average / Cholesterol (total), Average / Triglycerides, Average: end of the fifth week, equal to 20 mg/kg of NSAIAs every day
Text: (§2) 20% acetone solution of diethylaminoethyl acetylsalicylate.acetylsalicylic acid salt (P-1, in acetone); 4-acetamidophenyl salicylyldimethylaminobutyrate.HCl (P-6), diethylaminoethyl 5-(2,4-difluorophenyl) acetylsalicylate.5-(2,4-difluorophenyl) acetylsalicylic acid salt (P-8), diethylaminoethyl salicylsalicylate.AcOH (P-9), diethylaminoethyl salicylate.AcOH (P-10), diethylaminoethyl 5-acetamido-acetylsalicylate (P-58), diethylaminoethyl acetylsalicylsalicylate. acetylsalicylsalicylic acid salt (P-59), diethylaminoethyl acetylsalicylsalicylate. acetylsalicylsalicylsalicylic acid salt (P-60) (equal to of 20 mg/kg of NSAIAs) were mixed with food and were orally administered to the rats (SLAC/GK, type 2 diabetes, n=7) with food every day for 5 weeks. The blood glucose levels were measured once every 3 days at 3 pm (no fasting) from the second week to the fifth week. The blood lipid levels were measured at the end of the fifth week.

[6] = test system: rats (SLAC/GK, type 2 diabetes); experiment: Blood glucose in type 2 diabetes rats, oral with food; assay type: in vivo, rat; conditions: for Blood glucose, Diabetic rats, Average: average second to fifth week, no fasting, equal to 20 mg/kg of NSAIAs every day for 5 weeks; for Blood glucose, Diabetic rats, Baseline: equal to 20 mg/kg of NSAIAs
Text: as §2

[7] = test system: normal rats; experiment: Blood glucose in normal rats, oral with food; assay type: in vivo, rat; conditions: for Blood glucose, Normal rats, Average: average second to fifth week, equal to 20 mg/kg of NSAIAs every day; for Blood glucose, Normal rats, Baseline: equal to 20 mg/kg of NSAIAs
[8] = test system: Human breast cancer cells (BCAP-37); experiment: Human breast cancer xenograft in nude mice, topical; conditions: day 42, 30 μl of 5% (1.5 mg) topically every 8 hours from day 14; for Tumor size: control 800 ± 100
Protocol: Human breast cancer cells (BCAP-37, 2-3 mm^3 of tumor tissue was used in each mouse) are subcutaneously xenografted into the front leg of nude mice (BALB, 12 groups, 7 mice each group). […] Then 30 μl of 5% (equal to 1.5 mg of the HPPs) diethylaminoethyl acetylsalicylate.acetylsalicylic acid salt (P-1, in acetone); 1-piperidinepropyl 2[(2,6-dichlorophenyl)amino]benzene acetate.AcOH (P-2, in water), 1-pyrrolidinepropyl 2-(3-benzoylphenyl) propionate.AcOH (P-3, in water), 4-piperidinemethyl 2-(3-phenoxyphenyl)propionate.AcOH (P-4, in water), 3-piperidinemethyl 2-(ρ-isobutylphenyl) propionate.AcOH (P-5, in water), diethylaminoethyl 1-(p-chlorobenzoyl)-5-methoxy-2-methylindole 3-acetate.AcOH (P-11, in water), 2-(4-morpholinyl)ethyl (Z)-5-fluoro-2-methyl-1-[(4-methylsulfinyl) phenylmethylene]-1H-indene-3-acetate.AcOH (P-12, in water), diethylaminoethyl

Row | Structure (SMILES) | Blood glucose, Average [1] | Blood glucose, Baseline [1] | Blood glucose, Average [2] | Blood glucose, Baseline [2] | Cholesterol (HDL), Baseline [3] | Cholesterol (total), Baseline [3] | Triglycerides, Baseline [3] | Cholesterol (HDL), Average [3] | Cholesterol (total), Average [3] | Triglycerides, Average [3] | Blood glucose, Average [4] | Blood glucose, Baseline [4] | Cholesterol (HDL), Baseline [5] | Cholesterol (total), Baseline [5] | Triglycerides, Baseline [5] | Cholesterol (HDL), Average [5] | Cholesterol (total), Average [5] | Triglycerides, Average [5] | Blood glucose, Diabetic rats, Average [6] | Blood glucose, Diabetic rats, Baseline [6] | further results
1 | CCN(CC)CCOC(=O)c1cc(NC(C)=O)ccc1OC(C)=O [P-58, diethylaminoethyl 5-acetamido-acetylsalicylate] | 8.4 ± 1 mmol/L | 17.1 ± 3 mmol/L | 7.9 ± 1 mmol/L | 27.1 ± 3 mmol/L | 1.3 ± 0.1 mmol/L | 7.8 ± 0.5 mmol/L | 5.3 ± 0.5 mmol/L | 1.4 ± 0.2 mmol/L | 5.6 ± 0.4 mmol/L | 2.4 ± 0.2 mmol/L | 7.1 ± 1 mmol/L | 6.9 ± 1 mmol/L | 1.8 ± 0.1 mmol/L | 7.9 ± 0.5 mmol/L | 5.5 ± 0.5 mmol/L | 1.6 ± 0.2 mmol/L | 5.8 ± 0.4 mmol/L | 1.8 ± 0.2 mmol/L | 8.4 ± 1 mmol/L | 17.0 ± 3 mmol/L | Blood glucose, Normal rats, Average [7]: 7.2 ± 1 mmol/L; Blood glucose, Normal rats, Baseline [7]: 6.9 ± 1 mmol/L
2 | CC(=O)O.O=C(OCCCN1CCCC1)c1ccccc1Nc1cccc(C(F)(F)F)c1 [P-48] | – | – | – | – | – | – | – | – | – | – | – | – | – | – | – | – | – | – | – | – | Mouse weight ([8]; control 22 ± 2): 22 ± 3 g; Tumor size [8]: 290 ± 50 mm^3
3 | CC(=O)Nc1ccc(OC(=O)c2ccccc2OC(=O)CCCN(C)C)cc1.Cl [P-6] | 8.5 ± 2 mmol/L | 16.7 ± 4 mmol/L | 9.5 ± 2 mmol/L | 27.7 ± 4 mmol/L | 1.3 ± 0.1 mmol/L | 7.3 ± 0.5 mmol/L | 5.3 ± 0.5 mmol/L | 1.3 ± 0.2 mmol/L | 4.7 ± 0.4 mmol/L | 2.3 ± 0.2 mmol/L | 6.5 ± 1 mmol/L | 6.8 ± 1 mmol/L | 1.5 ± 0.1 mmol/L | 7.5 ± 0.4 mmol/L | 5.5 ± 0.5 mmol/L | 1.4 ± 0.2 mmol/L | 4.9 ± 0.4 mmol/L | 1.8 ± 0.2 mmol/L | 7.5 ± 2 mmol/L | 16.1 ± 4 mmol/L | Blood glucose, Normal rats, Average [7]: 6.4 ± 1 mmol/L; Blood glucose, Normal rats, Baseline [7]: 6.5 ± 1 mmol/L
4 | CC(=O)Oc1ccccc1C(=O)Oc1ccccc1C(=O)Oc1ccccc1C(=O)O.CCN(CC)CCOC(=O)c1ccccc1OC(=O)c1ccccc1OC(C)=O [P-60, diethylaminoethyl acetylsalicylsalicylate.acetylsalicylsalicylsalicylic acid salt] | 8.6 ± 1 mmol/L | 15.5 ± 3 mmol/L | 8.6 ± 1 mmol/L | 25.5 ± 3 mmol/L | 1.3 ± 0.2 mmol/L | 7.3 ± 0.6 mmol/L | 5.3 ± 0.6 mmol/L | 1.5 ± 0.2 mmol/L | 5.6 ± 0.3 mmol/L | 2.5 ± 0.2 mmol/L | 7.5 ± 1 mmol/L | 6.6 ± 1 mmol/L | 1.5 ± 0.2 mmol/L | 7.5 ± 0.5 mmol/L | 5.2 ± 0.5 mmol/L | 1.6 ± 0.2 mmol/L | 5.5 ± 0.3 mmol/L | 2.5 ± 0.2 mmol/L | 7.9 ± 1 mmol/L | 16.5 ± 3 mmol/L | Blood glucose, Normal rats, Average [7]: 7.3 ± 1 mmol/L; Blood glucose, Normal rats, Baseline [7]: 6.8 ± 1 mmol/L
5 | CC(=O)Oc1ccc(-c2ccc(F)cc2F)cc1C(=O)O.CCN(CC)CCOC(=O)c1cc(-c2ccc(F)cc2F)ccc1OC(C)=O [P-8, diethylaminoethyl 5-(2,4-difluorophenyl) acetylsalicylate.5-(2,4-difluorophenyl) acetylsalicylic acid salt] | 8.1 ± 1 mmol/L | 17.1 ± 3 mmol/L | 9.1 ± 1 mmol/L | 29.1 ± 5 mmol/L | 1.6 ± 0.2 mmol/L | 7.6 ± 0.6 mmol/L | 5.6 ± 0.6 mmol/L | 1.5 ± 0.2 mmol/L | 5.3 ± 0.3 mmol/L | 1.9 ± 0.2 mmol/L | 6.8 ± 1 mmol/L | 7.1 ± 1 mmol/L | 1.4 ± 0.2 mmol/L | 7.8 ± 0.6 mmol/L | 5.6 ± 0.7 mmol/L | 1.3 ± 0.2 mmol/L | 5.7 ± 0.3 mmol/L | 1.8 ± 0.2 mmol/L | 7.3 ± 1 mmol/L | 16.1 ± 3 mmol/L | Blood glucose, Normal rats, Average [7]: 6.8 ± 1 mmol/L; Blood glucose, Normal rats, Baseline [7]: 7.0 ± 1 mmol/L
6 | CC(=O)O.CC1=C(CC(=O)OCCN2CCOCC2)c2cc(F)ccc2/C1=C\c1ccc([S+](C)[O-])cc1 (stereo not shown) [P-12, 2-(4-morpholinyl)ethyl (Z)-5-fluoro-2-methyl-1-[(4-methylsulfinyl)phenylmethylene]-1H-indene-3-acetate.AcOH] | – | – | – | – | – | – | – | – | – | – | – | – | – | – | – | – | – | – | – | – | Tumor size [8]: 250 ± 50 mm^3
